Experimental data from patent US6355799B1, “Substituted benzene compounds, process for their preparation, and herbicidal and defoliant compositions containing them” (ISK Americas Incorporated, priority 1997, dated 2002).

Experiments:
Type in all cases: in vivo
[1] = tested on: field corn (Zea mays L., var. Dekalb 535, CORN); experiment: Post-emerge test, crop safety; details: rating scale 0-100 (0 no damage, 100 complete death), 14 days after application
In short: (§1)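 Compounds in acetone were track-sprayed at 187 l/ha, 15–1000 g ai/ha, onto sandy loam pots. Pre-emerge seeds were sown one day before spraying, with surface watering afterwards. Post-emerge plants were at the 2–3 leaf stage and sprayed with 0.25% v/v non-ionic surfactant. Injury was rated 0–100 at 14 days.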

[2] = tested on: upland rice (Oryza sp., var. Tebonnet, RICE); experiment: Post-emerge test, crop safety; details: rating scale 0-100 (0 no damage, 100 complete death), 14 days after application
In short: as §1

[3] = tested on: field corn (Zea mays L., var. Dekalb 535, CORN); experiment: Pre-emerge test, crop safety; details: pre-emerge, 14 days after application, rating scale 0-100
In short: (§2)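 Visual ratings on a 0-100 scale (0 no damage, 100 all plants dead) were taken at 14 days after treatment. Rates of 15-1000 g ai/ha in acetone, 187 l/ha, were sprayed onto soil one day after planting (pre-emerge) or onto 2-3 leaf plants with 0.25% v/v surfactant (post-emerge).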

[4] = tested on: upland rice (Oryza sp., var. Tebonnet, RICE); experiment: Pre-emerge test, crop safety; details: pre-emerge, 14 days after application, rating scale 0-100
In short: as §2

[5] = tested on: redroot pigweed (Amaranthus retroflexus, AMARE); experiment: Pre-emerge test, greenhouse herbicide activity screening; details: pre-emerge, 14 days after application, rating scale 0-100
In short: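 Plants grown in 10 cm pots of sandy loam mix received acetone-dissolved compounds through a moving flat-fan nozzle. Doses ranged from 15 to 1000 g ai/ha. Pre-emerge pots were seeded one day earlier, post-emerge pots 8–21 days earlier. Fourteen days on, each pot was graded 0–100 for damage.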

[6] = tested on: green foxtail (Setaria viridis, SETVI); experiment: Post-emerge test, greenhouse herbicide activity screening; details: rating scale 0-100 (0 no damage, 100 complete death), 14 days after application
In short: (§3)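 Herbicidal damage is scored 0 (none) to 100 (complete plant death) two weeks after a simulated field spray. Rates span 15–1000 g ai/ha, delivered in acetone at 187 l/ha. For post-emergence treatments, plants have 2–3 leaves and the spray carries 0.25% v/v non-ionic surfactant.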

[7] = tested on: lambsquarters (Chenopodium album, CHEAL); experiment: as above; details: rating scale 0-100 (0 no damage, 100 complete death), 14 days after application
In short: as §3

[8] = tested on: ivyleaf morningglory (Ipomoea hederacea, IPOHE); experiment: as above; details: rating scale 0-100 (0 no damage, 100 complete death), 14 days after application
In short: as §3

[9] = tested on: sicklepod (Cassia obtusifolia, CASOB); experiment: as above; details: rating scale 0-100 (0 no damage, 100 complete death), 14 days after application
In short: as §3

[10] = tested on: johnsongrass (Sorghum halepense, SORHA); experiment: as above; details: rating scale 0-100 (0 no damage, 100 complete death), 14 days after application
In short: as §3

[11] = tested on: barnyardgrass (Echinochloa crus-galli, ECHCG); experiment: as above; details: rating scale 0-100 (0 no damage, 100 complete death), 14 days after application
In short: as §3

[12] = tested on: large crabgrass (Digitaria sanguinalis, DIGSA); experiment: as above; details: rating scale 0-100 (0 no damage, 100 complete death), 14 days after application
In short: as §3

[13] = tested on: redroot pigweed (Amaranthus retroflexus, AMARE); experiment: as above; details: rating scale 0-100 (0 no damage, 100 complete death), 14 days after application
In short: as §3

[14] = tested on: velvetleaf (Abutilon theophrasti, ABUTH); experiment: as above; details: rating scale 0-100 (0 no damage, 100 complete death), 14 days after application
In short: as §3

[15] = tested on: green foxtail (Setaria viridis, SETVI); experiment: Pre-emerge test, greenhouse herbicide activity screening; details: pre-emerge, 14 days after application, rating scale 0-100
In short: as §1

[16] = tested on: lambsquarters (Chenopodium album, CHEAL); experiment: as above; details: pre-emerge, 14 days after application, rating scale 0-100
In short: as §1

[17] = tested on: ivyleaf morningglory (Ipomoea hederacea, IPOHE); experiment: as above; details: pre-emerge, 14 days after application, rating scale 0-100
In short: as §1

[18] = tested on: sicklepod (Cassia obtusifolia, CASOB); experiment: as above; details: pre-emerge, 14 days after application, rating scale 0-100
In short: as §1

[19] = tested on: johnsongrass (Sorghum halepense, SORHA); experiment: as above; details: pre-emerge, 14 days after application, rating scale 0-100
In short: as §1

[20] = tested on: barnyardgrass (Echinochloa crus-galli, ECHCG); experiment: as above; details: pre-emerge, 14 days after application, rating scale 0-100
In short: as §1

[21] = tested on: large crabgrass (Digitaria sanguinalis, DIGSA); experiment: as above; details: pre-emerge, 14 days after application, rating scale 0-100
In short: as §1

[22] = tested on: velvetleaf (Abutilon theophrasti, ABUTH); experiment: as above; details: pre-emerge, 14 days after application, rating scale 0-100
In short: as §1

Q: Which “Post-emerge phytotoxicity rating CORN (crop damage)” value ([1]; Rate 63 g ai/ha) does the source give for `CCOC(=O)C(Cl)(CC(=O)OC)Cc1c(OC)c(Cl)cc(F)c1-n1c(=O)cc(C(F)(F)F)n(C)c1=O` (centres unmarked) [14-50] here?
A: 10

Q: And the “Post-emerge phytotoxicity rating CORN (crop damage)” value ([1]; Rate 250 g ai/ha)?
A: 30

Q: And the “Post-emerge phytotoxicity rating RICE (crop damage)” value ([2]; Rate 63 g ai/ha)?
A: 30

Q: What about the “Post-emerge phytotoxicity rating RICE (crop damage)” value ([2]; Rate 250 g ai/ha) of the same compound?
A: 50

Q: What about the “phytotoxicity rating CORN” value ([3]; 63 g ai/ha) of the same compound?
A: 10

Q: And the “phytotoxicity rating CORN” value ([3]; 250 g ai/ha)?
A: 90

Q: And the “phytotoxicity rating RICE” value ([4]; 63 g ai/ha)?
A: 0

Q: And the “phytotoxicity rating RICE” value ([4]; 250 g ai/ha)?
A: 0

Q: And the “phytotoxicity rating AMARE” value ([5]; 63 g ai/ha)?
A: 100

Q: And the “phytotoxicity rating AMARE” value ([5]; 250 g ai/ha)?
A: 100

Q: And the “Post-emerge Herbicidal Activity, phytotoxicity rating SETVI” value ([6]; Rate 63 g ai/ha)?
A: 0

Q: And the “Post-emerge Herbicidal Activity, phytotoxicity rating SETVI” value ([6]; Rate 250 g ai/ha)?
A: 0

Q: What about the “Post-emerge Herbicidal Activity, phytotoxicity rating CHEAL” value ([7]; Rate 63 g ai/ha) of the same compound?
A: 50

Q: And the “Post-emerge Herbicidal Activity, phytotoxicity rating CHEAL” value ([7]; Rate 250 g ai/ha)?
A: 100

Q: What about the “Post-emerge Herbicidal Activity, phytotoxicity rating IPOHE” value ([8]; Rate 63 g ai/ha) of the same compound?
A: 0

Q: And the “Post-emerge Herbicidal Activity, phytotoxicity rating IPOHE” value ([8]; Rate 250 g ai/ha)?
A: 0

Q: And the “Post-emerge Herbicidal Activity, phytotoxicity rating CASOB” value ([9]; Rate 63 g ai/ha)?
A: 90

Q: And the “Post-emerge Herbicidal Activity, phytotoxicity rating CASOB” value ([9]; Rate 250 g ai/ha)?
A: 100

Q: What about the “Post-emerge Herbicidal Activity, phytotoxicity rating SORHA” value ([10]; Rate 63 g ai/ha) of the same compound?
A: 0

Q: And the “Post-emerge Herbicidal Activity, phytotoxicity rating SORHA” value ([10]; Rate 250 g ai/ha)?
A: 0

Q: And the “Post-emerge Herbicidal Activity, phytotoxicity rating ECHCG” value ([11]; Rate 63 g ai/ha)?
A: 0

Q: What about the “Post-emerge Herbicidal Activity, phytotoxicity rating ECHCG” value ([11]; Rate 250 g ai/ha) of the same compound?
A: 0

Q: And the “Post-emerge Herbicidal Activity, phytotoxicity rating DIGSA” value ([12]; Rate 63 g ai/ha)?
A: 0

Q: What about the “Post-emerge Herbicidal Activity, phytotoxicity rating DIGSA” value ([12]; Rate 250 g ai/ha) of the same compound?
A: 50

Q: And the “Post-emerge Herbicidal Activity, phytotoxicity rating AMARE” value ([13]; Rate 63 g ai/ha)?
A: 100

Q: And the “Post-emerge Herbicidal Activity, phytotoxicity rating AMARE” value ([13]; Rate 250 g ai/ha)?
A: 100

Q: What about the “Post-emerge Herbicidal Activity, phytotoxicity rating ABUTH” value ([14]; Rate 63 g ai/ha) of the same compound?
A: 30

Q: And the “Post-emerge Herbicidal Activity, phytotoxicity rating ABUTH” value ([14]; Rate 250 g ai/ha)?
A: 50

Q: And the “phytotoxicity rating SETVI” value ([15]; 63 g ai/ha)?
A: 0

Q: What about the “phytotoxicity rating SETVI” value ([15]; 250 g ai/ha) of the same compound?
A: 50

Q: And the “phytotoxicity rating CHEAL” value ([16]; 63 g ai/ha)?
A: 100

Q: What about the “phytotoxicity rating CHEAL” value ([16]; 250 g ai/ha) of the same compound?
A: 100

Q: What about the “phytotoxicity rating IPOHE” value ([17]; 63 g ai/ha) of the same compound?
A: 10

Q: What about the “phytotoxicity rating IPOHE” value ([17]; 250 g ai/ha) of the same compound?
A: 70

Q: And the “phytotoxicity rating CASOB” value ([18]; 63 g ai/ha)?
A: 0

Q: What about the “phytotoxicity rating CASOB” value ([18]; 250 g ai/ha) of the same compound?
A: 30

Q: What about the “phytotoxicity rating SORHA” value ([19]; 63 g ai/ha) of the same compound?
A: 50

Q: And the “phytotoxicity rating SORHA” value ([19]; 250 g ai/ha)?
A: 95

Q: And the “phytotoxicity rating ECHCG” value ([20]; 63 g ai/ha)?
A: 0

Q: What about the “phytotoxicity rating ECHCG” value ([20]; 250 g ai/ha) of the same compound?
A: 30

Q: What about the “phytotoxicity rating DIGSA” value ([21]; 63 g ai/ha) of the same compound?
A: 0

Q: What about the “phytotoxicity rating DIGSA” value ([21]; 250 g ai/ha) of the same compound?
A: 40

Q: And the “phytotoxicity rating ABUTH” value ([22]; 63 g ai/ha)?
A: 0

Q: And the “phytotoxicity rating ABUTH” value ([22]; 250 g ai/ha)?
A: 50
